# Source: patent US20110110965A1, “COMPOSITIONS THAT INDUCE T CELL HELP” (Selecta Biosciences, Inc., priority 2009, published 2011)
# Entries after “also recorded” stand apart in the source; their conditions may differ. Read-outs that look alike come from different tables or passages of the source. Where no end group is shown, it is not given here. [ ]: non-standard residue; d: D form.
# What was measured:
# [1] = test system: CD4+/CD45RAlow/CD62Lhigh central memory T-cells; assay type: cell-based, human; settings: for memory T-cell recall response, influenza epitopes: 5 PBMC donors, FIG. 12; for memory T-cell recall response, influenza epitopes / potency of recall response (activated central memory T-cells, CD4+/CD45RAmedium/CD62Lhigh/IFN-γ+) / memory T-cell recall response of individual peptides and heterodimeric peptides lacking a cathepsin cleavage site compared with this peptide: 4 μM peptide; for potency of recall response (activated central memory T-cells, CD4+/CD45RAmedium/CD62Lhigh/IFN-γ+): human PBMC, 20 donors, FIG. 2; for memory T-cell recall response of individual peptides and heterodimeric peptides lacking a cathepsin cleavage site compared with this peptide: 4 donors, the comparators gave the weaker response, the labelled kvsvr peptides the stronger
# [2] = test system: CD4+/CD45RAlow/CD62Lhigh central memory T-cells; test: Dendritic cell/CD4 T-cell co-culture, multi-color intracellular cytokine analysis; assay type: cell-based, human; settings: for co-expression of TNF-α and IFN-γ / co-expression of TNF-α and IL-4: multiple color flow cytometry, FIG. 6; for expression of IL-4 in peptide activated memory T-cells / expression of TNF-α and IFN-γ in peptide activated memory T-cells: DC/CD4 T-cell co-culture with peptide, FIGS. 4, 5
# Protocol: Early central memory-cells express multiple cytokines (IL-2, TNF-α, IFN-γ) when re-activated with specific peptides, whereas committed effector memory T-cells are thought to selectively express IL-4 for TH2 committed effector memory, and IFN-γ for TH1 committed effector memory. The status of peptide activated memory T-cells was tested using multi-color intracellular cytokine analysis of dendritic cell/CD4 cell co-cultures.
# Human peripheral blood monocytes were isolated using negative-selection magnetic beads (Dynal) and cultured in the presence of GM-CSF and IL-4 for 1 week in order to induce differentiation into dendritic cells. Allogeneic CD4 T cells were isolated using magnetic bead separation (Dynal) and co-cultured in the presence of DCs in the presence or absence of peptide. The protocol for stimulation and analysis from that point is identical to that for PBMC described above in Example 2.
substance,measurement,setting,value
NAELLVALENQHTIkvsvrLIFLARSALILR (NAELLVALENQHTIKVSVRLIFLARSALILR) [3120tkAAT],"memory T-cell recall response, influenza epitopes",[1],positive
ILSIYSTVASSLALAIkvsvrLIFLARSALILR [ABW2kAAT],"memory T-cell recall response, influenza epitopes",[1],positive
ILMQYIKANSKFIGIQSIALSSLMVAQ [TT830DTt],co-expression of TNF-α and IFN-γ,[2],peptide induced co-expression
same,co-expression of TNF-α and IL-4,[2],not co-expression
ILMQYIKANSKFIGIPMGLPQSIALSSLMVAQ [TT830pDTt],"potency of recall response (activated central memory T-cells, CD4+/CD45RAmedium/CD62Lhigh/IFN-γ+)",[1]; listed as TT830 pmglpDTt,highest response; also recorded: more active than its individual components (TT830 and DT) alone
same,number (out of 20) donors positive for memory T-cells responding to peptide,"[1]; positive if greater than 0.08% responding central memory T-cells in the CD4+CD45RAlow population, FIG. 3",20/20
same,expression of IL-4 in peptide activated memory T-cells,[2],not IL-4
same,expression of TNF-α and IFN-γ in peptide activated memory T-cells,[2],increased expression
same,co-expression of TNF-α and IFN-γ,[2],peptide induced co-expression
same,co-expression of TNF-α and IL-4,[2],not co-expression
TLLYVLFEVkvsvrQSIALSSLMVAQ (TLLYVLFEV[dK][dV][dS][dV][dR]QSIALSSLMVAQ) [AdVkDTt],memory T-cell recall response of individual peptides and heterodimeric peptides lacking a cathepsin cleavage site compared with this peptide,[1],weaker response as compared to the donor response to heterotrimeric peptides
TLLYVLFEVPMGLPILMQYIKANSKFIGI [AdVpTT830],"potency of recall response (activated central memory T-cells, CD4+/CD45RAmedium/CD62Lhigh/IFN-γ+)",[1],eliminated activity of the AdV epitope
CSQRSKFLLMDALKLkvsvrLIFLARSALILR [AAWkAAT],"memory T-cell recall response, influenza epitopes",[1],positive
LIFLARSALILRkvsvrILSIYSTVASSLALAI [AATkABW2],"memory T-cell recall response, influenza epitopes",[1],positive
ILMQYIKANSKFIGI QSIALSSLMVAQTLLYVLFEV (ILMQYIKANSKFIGIQSIALSSLMVAQTLLYVLFEV) [TT830DTAdV],memory T-cell recall response,[1],recall response in all 4 donors
TLLYVLFEVkvsvr NNFTVSFWLRVPKVSASHLET (TLLYVLFEV[dK][dV][dS][dV][dR]NNFTVSFWLRVPKVSASHLET) [AdVkTT950],memory T-cell recall response of individual peptides and heterodimeric peptides lacking a cathepsin cleavage site compared with this peptide,[1],weaker response as compared to the donor response to heterotrimeric peptides
ILMQYIKANSKFIGIQSIALSSLMVAQAIPLVGEL [TT830DT],expression of IL-4 in peptide activated memory T-cells,[2],not IL-4
same,expression of TNF-α and IFN-γ in peptide activated memory T-cells,[2],increased expression
